Patent US12180226B2, “Spirotricycle RIPK1 inhibitors and methods of uses thereof” (Merck Sharp & Dohme LLC, priority 2021, dated 2024)
Where a name gives a salt, the structure may show the parent alone.

Target: RIPK1 (recombinant GST-RIPK1 kinase domain, residues 1-327) (Homo sapiens (Human), UniProt Q13546)
Experiment: RIPK1-ADP-Glo Enzymatic Assay
Type: biochemical
Settings: ADP-Glo; 25 nM GST-RIPK1, 300 μM ATP; assay lower limit ~25 nM; read-out: RIPK1 V0 Ec50
Procedure, shortened: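 Inhibition of ADP formation was measured after compound and enzyme (25 nM) were pre-incubated for 30 minutes at ambient temperature and the kinase reaction ran for 150 minutes at 300 μM ATP with dephosphorylated MBP substrate. EC50 values come from ten-point curves fitted non-linearly.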

Chain of RIPK1 (recombinant GST-RIPK1 kinase domain, residues 1-327) (Q13546 1-327): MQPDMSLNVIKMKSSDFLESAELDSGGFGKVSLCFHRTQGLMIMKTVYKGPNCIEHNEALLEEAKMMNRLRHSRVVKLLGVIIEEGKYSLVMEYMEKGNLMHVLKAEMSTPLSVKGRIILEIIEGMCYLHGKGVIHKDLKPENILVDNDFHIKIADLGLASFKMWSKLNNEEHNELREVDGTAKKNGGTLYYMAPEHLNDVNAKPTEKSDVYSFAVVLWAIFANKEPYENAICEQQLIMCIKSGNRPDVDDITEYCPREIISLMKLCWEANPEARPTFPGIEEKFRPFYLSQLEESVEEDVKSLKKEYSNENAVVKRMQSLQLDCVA

EC50 | Structure (SMILES)
< 25 nM | O=C(c1coc2ccccc12)N1CCC2(CC1)O[C@@H]1CC[C@@H](c3cc(F)cc(F)c3)N1C2=O [Example 5.70]
86 nM | O=C(c1cnc(Cl)cn1)N1CCC2(CC1)O[C@@H]1CC[C@@H](c3cc(F)cc(F)c3)N1C2=O [Example 6.86, (5′S,7a′R)-1-(5-chloro-pyrazine-2-carbonyl)-5′-(3,5-difluorophen-yl)tetrahydro-3′H-spiro[piperidine-4,2′-pyrrolo[2,1-b][1,3]-oxazol]-3′-one]
213 nM | Cc1ccccc1CN1CCC2(CC1)O[C@@H]1CC[C@@H](c3cc(F)cc(F)c3)N1C2=O [Example 22.5, (5′S,7a′R)-5′-(3,5-difluorophenyl)-1-[(2-methylphenyl)methyl] tetrahydro-3′H-spiro[piperidine-4,2′-pyrrolo[2,1-b][1,3]oxazol]-3′-one]
< 25 nM | O=C1N2[C@@H](CC[C@H]2c2cc(F)cc(F)c2)OC12CN(c1ccnc3c(F)cnn13)C2 [Example 4.117, (5′S,7a′R)-5′-(3,5-difluorophenyl)-1-(3-fluoropyrazolo[1,5-a]pyrimidin-7-yl)tetrahydro-3′H-spiro[azetidine-3,2′-pyrrolo[2,1-b]oxazol]-3′-one]
< 25 nM | COc1ccc(N2CCC3(CC2)O[C@@H]2CC[C@@H](c4ccccc4)N2C3=O)nc1OC [Example 11.31, (5′S,7a′R)-1-(5,6-dimethoxypyridin-2-yl)-5′-phenyltetrahydro-3′H-spiro[piperidine-4,2′-pyrrolo[2,1-b][1,3]oxazol]-3′-one]
45.4 nM | COc1cnc(N2CCC3(CC2)O[C@@H]2CC[C@@H](c4ccccc4)N2C3=O)n2ncnc12 [Example 19.6, (5′S,7a′R)-1-(8-methoxy[1,2,4]triazolo [1,5-c]pyrimidin-5-yl)-5′-phenyltetrahydro-3′H-spiro[piperidine-4,2′-pyrrolo[2,1-b][1,3]oxazol]-3′-one]
88.8 nM | O=C(c1ccn(C2CC2)n1)N1CCC2(CC1)O[C@@H]1CC[C@@H](c3cc(F)cc(F)c3)N1C2=O [Example 5.52, (5′S,7a′R)-1-(1-cycloprop-yl-1H-pyrazole-3-carbon-yl)-5′-(3,5-difluorophen-yl)tetrahydro-3′H-spiro [piperidine-4,2′-pyrrolo-[2,1-b]oxazol]-3′-one]
52.5 nM | CCOC(=O)c1ccc(N2CCC3(CC2)O[C@@H]2CC[C@@H](c4ccccc4)N2C3=O)nc1 [Example 4.200, ethyl 6-[(5′S,7a′R)-3′-oxo-5′-phenyltetrahydro-1H,3′H-spiro[piperidine-4,2′-pyrrolo[2,1-b] [1,3]oxazol]-1-yl]pyridine-3-carboxylate]
701 nM | Cc1cccc(CN2CCC3(CC2)O[C@@H]2CC[C@@H](c4cc(F)cc(F)c4)N2C3=O)c1 [Example 22.4, (5′S,7a′R)-5′-(3,5-difluorophenyl)-1-[(3-methylphenyl)methyl] tetrahydro-3′H-spiro[piperidine-4,2′-pyrrolo[2,1-b][1,3]oxazol]-3′-one]
32.3 nM | O=C(c1ncoc1C1CC1)N1CCC2(CC1)O[C@@H]1CC[C@@H](c3cc(F)cc(F)c3)N1C2=O [Example 6.24, (5′S,7a′R)-1-(5-cyclo-propyl-1,3-oxazole-4-carbonyl)-5′-(3,5-difluorophenyl)tetra-hydro-3′H-spiro[piperi-dine-4,2′-pyrrolo[2,1-b][1,3]oxazol]-3′-one]
< 25 nM | O=C1N2[C@@H](CC[C@H]2c2ccccc2)OC12CCN(c1ccc(C(F)F)c3ncnn13)CC2 [Example 4.269, (5′S,7a′R)-1-[8-(difluoromethyl)[1,2,4]triazolo[1,5-a]pyridin-5-yl]-5′-phenyltetrahydro-3′H-spiro[piperidine-4,2′-pyrrolo[2,1-b] [1,3]oxazol]-3′-one]
245 nM | Cc1nccc(C(=O)N2CCC3(CC2)O[C@@H]2CC[C@@H](c4cc(F)cc(F)c4)N2C3=O)n1 [Example 6.95]
< 25 nM | O=C(c1ccccc1)N1CCC2(CC1)SC1CC[C@@H](c3cc(F)cc(F)c3)N1C2=O (stereo partly drawn) [Example 1.22, (5′S)-1-benzoyl-5′-(3,5-difluorophenyl)tetrahydro-3′H-spiro[piperidine-4,2′-pyrrolo[2,1-b]thiazol]-3′-one]
48.6 nM | O=C(c1cnc2ccccc2n1)N1CCC2(CC1)O[C@@H]1CC[C@@H](c3cc(F)cc(F)c3)N1C2=O [Example 6.73, (5′S,7a′R)-5′-(3,5-difluorophenyl)-1-(quinoxaline-2-carbon-yl)tetrahydro-3′H-spiro[piperidine-4,2′-pyrrolo[2,1-b][1,3]-oxazol]-3′-one]
30.7 nM | N#Cc1cnc(N2CCC3(CC2)O[C@@H]2CC[C@@H](c4cccc(F)c4)N2C3=O)c(F)c1 [Example 4.50, 5-fluoro-6-[(5′S,7a′R)-5′-(3-fluorophenyl)-3′-oxotetrahydro-1H,3′H-spiro[piperidine-4,2′-pyrrolo[2,1-b] [1,3]oxazol]-1-yl]pyridine-3-carbonitrile]
907 nM | O=C1N2[C@@H](CC[C@H]2c2ccccc2)OC12CCN(c1ccc(OC3CCC3)nn1)CC2 [Example 11.9, (5′S,7a′R)-1-[6-(cyclobutyloxy)pyridazin-3-yl]-5′-phenyltetrahydro-3′H-spiro[piperidine-4,2′-pyrrolo[2,1-b][1,3]oxazol]-3′-one]
47.1 nM | N#Cc1cccc(C(=O)N2CCC3(CC2)O[C@@H]2CC[C@@H](c4ccccc4)N2C3=O)c1F [Example 6.140, 2-fluoro-3-[(5′S,7a′R)-3′-oxo-5′-phenyltetra-hydro-1H,3′H-spiro [piperidine-4,2′-pyrrolo[2,1-b][1,3]oxazole]-1-carbonyl] benzonitrile]
27.3 nM | O=C1N2[C@@H](CC[C@H]2c2ccccc2)OC12CCN(c1ncnn3ccnc13)CC2 [Example 4.227, (5′S,7a′R)-1-(imidazo[2,1-f] [1,2,4]triazin-4-yl)-5′-phenyltetrahydro-3′H-spiro[piperidine-4,2′-pyrrolo[2,1-b] [1,3]oxazol]-3′-one]
851 nM | O=C(c1ccsc1-c1ncccn1)N1CCC2(CC1)O[C@@H]1CC[C@@H](c3cc(F)cc(F)c3)N1C2=O [Example 6.36, (5′S,7a′R)-5′-(3,5-difluorophenyl)-1-[2-(pyrimidin-2-yl)thio-phene-3-carbonyl] tetrahydro-3′H-spiro [piperidine-4,2′-pyrrolo[2,1-b][1,3]oxazol]-3′-one]
< 25 nM | O=C1N2[C@@H](CC[C@H]2c2ccccc2)OC12CCN(c1ncc(-c3cocn3)cc1F)CC2 [Example 21.6, (5′S,7a′R)-1-[3-fluoro-5-(1,3-oxazol-4-yl)pyridin-2-yl]-5′-phenyltetrahydro-3′H-spiro[piperidine-4,2′-pyrrolo[2,1-b][1,3]oxazol]-3′-one]
150 nM | N#CN1CCC2(CC1)O[C@@H]1CC[C@@H](c3cc(F)cc(F)c3)N1C2=O [Example 4.48, (5′S,7a′R)-5′-(3,5-difluorophenyl)-3′-oxotetrahydro-1H,3′H-spiro[piperidine-4,2′-pyrrolo[2,1-b] [1,3]oxazole]-1-carbonitrile]
< 25 nM | N#Cc1cc(C(=O)N2CCC3(CC2)O[C@@H]2CC[C@@H](c4cccc(F)c4)N2C3=O)ccc1F [Example 6.113, 2-fluoro-5-[(5′S,7a′R)-5′-(3-fluorophenyl)-3′-oxotetrahydro-1H,3′H-spiro[piperidine-4,2′-pyrrolo[2,1-b][1,3]-oxazole]-1-carbonyl] benzonitrile]
413 nM | N#CCc1nc(C(=O)N2CCC3(CC2)O[C@@H]2CC[C@@H](c4cc(F)cc(F)c4)N2C3=O)cs1 [Example 6.29, {4-[(5′S,7a′R)-5′-(3,5-difluorophenyl)-3-oxo-tetrahydro-1H,3′H-spiro[piperidine-4,2′-pyrrolo[2,1-b][1,3]oxazole]-1-carbonyl]-1,3-thiazol-2-yl} acetonitrile]
867 nM | CCOc1ncccc1C(=O)N1CCC2(CC1)O[C@@H]1CC[C@@H](c3cc(F)cc(F)c3)N1C2=O [Example 6.38, (5′S,7a′R)-5′-(3,5-difluorophenyl)-1-(2-ethoxypyridine-3-carbonyl)tetrahydro-3′H-spiro[piperidine-4,2′-pyrrolo[2,1-b] [1,3]oxazol]-3′-one]
41.3 nM | COc1cccc(F)c1C(=O)N1CCC2(CC1)O[C@@H]1CC[C@@H](c3cc(F)cc(F)c3)N1C2=O [Example 6.72, (5′S,7a′R)-5′-(3,5-difluorophenyl)-1-(2-fluoro-6-methoxy-benzene-1-carbonyl) tetrahydro-3′H-spiro [piperidine-4,2′-pyrrolo[2,1-b][1,3]-oxazol]-3′-one]
< 25 nM | CC(=O)c1cnc(N2CCC3(CC2)O[C@@H]2CC[C@@H](c4ccccc4)N2C3=O)cc1Cl [Example 4.186, (5′S,7a′R)-1-(5-acetyl-4-chloropyridin-2-yl)-5′-phenyltetrahydro-3′H-spiro[piperidine-4,2′-pyrrolo[2,1-b] [1,3]oxazol]-3′-one]
< 25 nM | COc1ccc(N2CCC3(CC2)O[C@@H]2CC[C@@H](c4cc(F)cc(F)c4)N2C3=O)n2nccc12 [Example 19.1, (5′S,7a′R)-5′-(3,5-Difluorophenyl)-1-(4-methoxypyrazolo[1,5-a]pyridin-7-yl)tetrahydro-3′H-spiro[piperidine-4,2′-pyrrolo[2,1-b]oxazol]-3′-one, TFA]
52.8 nM | CCOC(=O)c1cc(N2CCC3(CC2)O[C@@H]2CC[C@@H](c4ccccc4)N2C3=O)ncn1 [Example 4.23, ethyl 6-[(5′S,7a′R)-3′-oxo-5′-phenyltetrahydro-1H,3′H-spiro[piperidine-4,2′-pyrrolo[2,1-b] [1,3]oxazol]-1-yl]pyrimidine-4-carboxylate]

Structure (SMILES) | EC50
N#Cc1cnc(N2CCC3(CC2)O[C@@H]2CC[C@@H](c4cc(F)cc(F)c4)N2C3=O)cc1F [Example 4.75, 6-[(5′S,7a′R)-5′-(3,5-difluorophenyl)-3′-oxotetrahydro-1H,3′H-spiro[piperidine-4,2′-pyrrolo[2,1-b] [1,3]oxazol]-1-yl]-4-fluoropyridine-3-carbonitrile] | < 25 nM
